From patent publication US20180153867A1, “TREATMENT OF PROSTATE CANCER BY CONCOMITANT ADMINISTRATION OF A BROMODOMAIN INHIBITOR AND A SECOND AGENT” (Gilead Sciences, Inc., priority 2016, published 2018)
Entries after “also recorded” stand apart in the source; their conditions may differ.

Columns and labels:
[1] = system: VCaP (AR-V7 positive) cells; assay: Cell growth inhibition in VCaP cells (Cell Titer-Glo, 96 hours); assay type: cell-based; conditions: for effect on growth and number of viable VCaP cells (in words): single agent, 3 to 10,000 nM; for effect on growth and number of viable VCaP cells (in words) / inhibition of cell growth and viability: 96 hours; for EC50: Homo sapiens, VCaP
Protocol: (§1) VCaP cells were grown under standard cell culture conditions in 10% fetal bovine serum (FBS). LNCaP cells were grown in charcoal stripped FBS supplemented with 10 nM DHT in a 3-dimensional cell spheroid culture system, which increases androgen-dependent growth. […] This concentration of enzalutamide (3000 nM) was chosen for the combination study because it matches the clinical steady state trough level of enzalutamide at the recommended dose of 160 mg QD after accounting for differences in protein binding between cell culture media and human plasma. Cell growth and number was measured by quantification of the total cellular ATP content (Cell Titer-Glo® Luminescent Cell Viability Assay) at the time of compound addition (T=0), and after 96 hours of treatment.
(§2) Referring again to FIG. 1, the Y-axis is normalized CellTiter-Glo values where the bottom of the assay (no ATP)=0% and the DMSO-treated cells=100% at the end of the assay. T=0 represents the CellTiter-Glo signal recorded at the time of compound addition. […] One representative of three independent experiments is shown.

[2] = patients, enzalutamide; cited from earlier work
[3] = system: LNCaP (AR-V7 negative) cells; assay: Cell growth inhibition in LNCaP cells, 3-dimensional spheroid culture (Cell Titer-Glo, 96 hours); assay type: cell-based
Protocol: as §1, §2

[4] = Protein binding difference between cell culture media and human plasma; assay type: in vitro ADME; conditions: cell culture media vs human plasma
[5] = dog, in vivo
Protocol: The Phase 1 study will be a 3+3 dose escalation to evaluate the safety, tolerability, PK, and maximum tolerated dose of compound (I-1) after multiple dosing in patients with CRPC. The initial dose will be at 0.6 mg, and intensive safety, PK and PD monitoring will occur prior to each dose escalation. […] Approximately six dose levels will be explored. The PD assessment will be a NanoString assay that measures levels of HEXIM1 and CCR2 RNA in peripheral blood cells.

[6] = compound (I-1) alone at its projected Cmax
[7] = compound (I-1) alone at its projected Cmin
[8] = compound (I-1) at its projected Cmax with 3,000 nM enzalutamide
[9] = compound (I-1) at its projected Cmin with 3,000 nM enzalutamide

| SMILES | effect on growth and number of viable VCaP cells (in words) [1] | OS HR [2] | increase in OS [2] [month] | EC50 ([1]; compound (I-1) alone) [nM] | EC50 ([1]; in the presence of 3,000 nM enzalutamide) [nM] | inhibition of cell growth and viability [1, 6] [%] | inhibition of cell growth and viability [1, 7] [%] | inhibition of cell growth and viability [1, 8] [%] | inhibition of cell growth and viability [1, 9] [%] | inhibition of cell growth and viability [3, 6] [%] | inhibition of cell growth and viability [3, 7] [%] | inhibition of cell growth and viability [3, 8] [%] | inhibition of cell growth and viability [3, 9] [%] | difference in protein binding between cell culture media and human plasma [4] [×] | dose/toxicity relationship [5] |
| --- | --- | --- | --- | --- | --- | --- | --- | --- | --- | --- | --- | --- | --- | --- | --- |
| CNC(=O)c1ccc(N2C(=S)N(c3ccc(C#N)c(C(F)(F)F)c3)C(=O)C2(C)C)cc1F [enzalutamide] | reduced the growth of VCaP cells but the magnitude of growth suppression was significantly less than that observed for compound (I-1) | 0.69 | 3.4 |  |  |  |  |  |  |  |  |  |  |  |  |
| Cc1noc(C)c1-c1cc(C(O)(c2ccccn2)c2ccccn2)c2nc(C3CC3)[nH]c2c1 [compound (I-1), (2-cyclopropyl-6-(3,5-dimethylisoxazol-4-yl)-1H-benzo[d]imidazol-4-yl)di(pyridin-2-yl)methanol] | potently reduced the growth of VCaP cells; also recorded: decreased the number of viable cells to below that recorded at the beginning of the assay (T=0) |  |  | 130 | 75 | 40 | 0 | 65 | 25 | 45 | 20 | 65 | 45 | 5.7 | steep dose/toxicity relationship |
